Assay results taken from PMC6863074 (Journal of medicinal chemistry, 2015).
In brackets after ≈: the same amount, converted by molar mass. Entries after “also recorded” stand apart in the source; their conditions may differ. Where two headings read alike, the source gives them in different places. Marks after values point to notes of the source that are not given here.

How the values were obtained:
[1] = cited from earlier work
S. aureus ATCC 29213 [2] = conditions: S. aureus ATCC 29213, MSSA quality-control strain; cited from earlier work
S. aureus ATCC 29213 [3] = assay: MIC determination, S. aureus ATCC 29213; conditions: S. aureus ATCC 29213 MIC screening; active = MIC ≤ 8 μg/mL
S. aureus ATCC 27660 = conditions: cited from earlier work
HepG2 cells = assay: XTT cytotoxicity assay with HepG2 cells
Full PK study in mice = conditions: mouse
S. aureus ATCC 29213 [4] = assay: Minimal-bactericidal concentration; conditions: S. aureus ATCC 29213 (MSSA); MBC = >1000-fold reduction in colonies
S. epidermis ATCC 35547 = assay: MIC determination, S. epidermis ATCC 35547; type: cell-based

Compound	antibacterial activity (in words) (S. aureus ATCC 29213 [3])	further results
CCCCCCCCCC(=O)N[C@@H](Cc1c[nH]c2ccccc12)C(=O)N[C@H](CC(N)=O)C(=O)N[C@@H](CC(=O)O)C(=O)N[C@@H]1C(=O)NCC(=O)N[C@@H](CCCN)C(=O)N[C@@H](CC(=O)O)C(=O)N[C@H](C)C(=O)N[C@@H](CC(=O)O)C(=O)NCC(=O)N[C@H](CO)C(=O)N[C@@H]([C@H](C)CC(=O)O)C(=O)N[C@@H](CC(=O)c2ccccc2N)C(=O)O[C@@H]1C [daptomycin]		plasma protein binding ([1]; plasma): > 91%
teicoplanin		plasma protein binding ([1]; plasma): > 91%
CC(=O)NC[C@H]1CN(c2ccc(N3CCOCC3)c(F)c2)C(=O)O1 [linezolid]		MIC (S. aureus ATCC 29213 [2]): 4 µg/mL (≈ 11.9 µM)
Cc1onc(-c2ccccc2)c1C(=O)N[C@@H]1C(=O)N2[C@@H]1SC(C)(C)[C@@H]2C(=O)O [oxacillin]		plasma protein binding ([1]; plasma): > 91%
CCn1ccc(-c2nc(-c3ccc(Oc4ccc(F)cc4)cc3)no2)n1 [118c]	No activity	
O=P(O)(O)c1ccc(-c2nc(-c3ccc(Oc4ccc(F)cc4)cc3)no2)cc1 [84c]	loss of activity; also recorded: attenuate or abrogate activity	
Oc1ccc(-c2nc(-c3ccc(Oc4ccc(C(F)(F)F)cc4)cc3)no2)cc1 [compound 1]		ED50 (S. aureus ATCC 27660; iv, 2 doses given at 30 min and 7.5 h after infection): ED50 = 40 mg/kg^c; ED50 (S. aureus ATCC 27660; po, single dose given at 1 h after infection): 44^a mg/kg
Oc1cccc(-c2nc(-c3ccc(Oc4ccccc4)cc3)no2)c1 [95a]	failed to show activity	
FC(F)(F)c1ccc(Oc2ccc(-c3noc(-c4ccc(Br)cc4)n3)cc2)cc1 [81b]	loss of activity	
Oc1ccc(-c2nc(-c3ccc(Oc4ccc(C(F)(F)F)cc4)cc3)no2)cn1 [120b]	No activity	
COc1cc(-c2nc(-c3ccc(Oc4ccc(C(F)(F)F)cc4)cc3)no2)ccc1O [93b]	failed to show activity; also recorded: abolish activity	
FC(F)(F)c1ccc(Oc2ccc(-c3noc(-c4n[nH]cc4NC4CCCC4)n3)cc2)cc1 [107b]	did not extend	
FC(F)(F)c1ccc(Oc2ccc(-c3noc(-c4nc[nH]n4)n3)cc2)cc1 [116b]	generally abolish antibacterial activity	
[O-][n+]1ccc(-c2nc(-c3ccc(Oc4ccccc4)cc3)no2)cc1 [115a]	generally abolish antibacterial activity	
NS(=O)(=O)c1ccc(-c2nc(-c3ccc(Oc4ccc(C(F)(F)F)cc4)cc3)no2)cc1 [87b]	failed to show activity; also recorded: attenuate or abrogate activity	
COc1cc(-c2nc(-c3ccc(Oc4ccccc4)cc3)no2)ccc1N [94a]	abolish activity	
O=c1[nH]c(-c2ccc(Oc3ccccc3)cc2)no1 [112a]	abolishes activity	
Nc1c[nH]c(-c2nc(-c3ccc(Oc4ccc(F)cc4)cc3)no2)c1 [126c]	generally abolish antibacterial activity	
FC(F)(F)c1ccc(Oc2ccc(-c3noc(-c4c[nH]c5ncccc45)n3)cc2)cc1 [125b]	No activity	

Compound	antibacterial activity (in words) (S. aureus ATCC 29213 [3])	further results
O=[N+]([O-])c1cc(-c2nc(-c3ccc(Oc4ccc(C(F)(F)F)cc4)cc3)no2)cnc1O [77b]	retained good activity	
FC(F)(F)c1ccc(Oc2ccc(-c3noc(-c4cc[nH]n4)n3)cc2)cc1 [102b]	No activity	
Oc1c(F)cc(-c2nc(-c3ccc(Oc4ccc(C(F)(F)F)cc4)cc3)no2)cc1F [71b]	without significant loss of activity	
O=[N+]([O-])c1c[nH]c(-c2nc(-c3ccc(Oc4ccc(F)cc4)cc3)no2)c1 [78c]	generally abolish antibacterial activity	
O=C(O)c1ccc(-c2nc(-c3ccc(Oc4ccc(F)cc4)cc3)no2)cc1 [89c]	failed to show activity; also recorded: attenuate or abrogate activity	
Nc1cncc(-c2nc(-c3ccc(Oc4ccc(C(F)(F)F)cc4)cc3)no2)c1 [122b]	No activity	
COC(=O)c1ccc(-c2nc(-c3ccc(Oc4ccc(F)cc4)cc3)no2)cc1 [90c]	failed to show activity	
Oc1ccc(-c2nc(-c3ccc(Oc4ccc(C(F)(F)F)cc4)cc3)no2)cc1O [69b]	retained activity	
O=[N+]([O-])c1cc(-c2nc(-c3ccc(Oc4ccc(F)cc4)cc3)no2)ccc1O [91c]	failed to show activity; also recorded: abolish activity	
c1ccc(Oc2ccc(-c3noc(-c4ccncc4)n3)cc2)cc1 [114a]	generally abolish antibacterial activity	
CC(C)Nc1c[nH]nc1-c1nc(-c2ccc(Oc3ccccc3)cc2)no1 [65a]	active	
Cc1nc(-c2ccc(Oc3ccccc3)cc2)no1 [113a]	abolishes activity	
CO[C@H]1/C=C/O[C@@]2(C)Oc3c(C)c(O)c4c(O)c(c(/C=N/N5CCN(C)CC5)c(O)c4c3C2=O)NC(=O)/C(C)=C\C=C\[C@H](C)[C@H](O)[C@@H](C)[C@@H](O)[C@@H](C)[C@H](OC(C)=O)[C@@H]1C [rifampicin]		plasma protein binding ([1]; antibiotics on the market): > 91%
FC(F)(F)c1ccc(Oc2ccc(-c3noc(-c4n[nH]cc4NC4CCCCC4)n3)cc2)cc1 [106b]	did not extend	
Nc1ccc(-c2nc(-c3ccc(Oc4ccc(F)cc4)cc3)no2)cc1 [58c]	no antibiotic activity	
FC(F)(F)c1ccc(Oc2ccc(-c3noc(-c4ccc5[nH]ccc5c4)n3)cc2)cc1 [75b, 5-(1H-Indol-5-yl)-3-(4-(4-(trifluoromethyl)phenoxy)phenyl)-1,2,4-oxadiazole]		fold less toxic compared to the lead 1 (XTT HepG2) (HepG2 cells; HepG2 cells, versus compound 1): 5 fold; clearance as % of hepatic blood flow (Full PK study in mice; 20 mg/kg iv): less than 10%; t1/2α (Full PK study in mice; 20 mg/kg iv): t1/2α = 0.54 min; t1/2dist (Full PK study in mice; 20 mg/kg po): t1/2dist = 15.9 h; fold higher volume of distribution than 1 (Full PK study in mice; versus compound 1): 13 fold; fold lower clearance than 1 (Full PK study in mice; versus compound 1): 3 fold; MBC relative to MIC (S. aureus ATCC 29213 [4]): the same as the MIC value
CC(C)Nc1c[nH]nc1-c1nc(-c2ccc(Oc3ccc(C(F)(F)F)cc3)cc2)no1 [65b, N-Isopropyl-3-(3-(4-(4-(trifluoromethyl)phenoxy)phenyl)-1,2,4-oxadiazol-5-yl)-1H-pyrazol-4-amine]	active	IC50 (HepG2 cells; Homo sapiens, HepG2, read-out: XTT HepG2 IC50): 3.9 ± 0.8 µg/mL (≈ 9.08 µM); MIC (S. epidermis ATCC 35547): > 128 µg/mL
Nc1ccc(-c2nc(-c3ccc(Oc4ccccc4)cc3)no2)cc1 [58a]	low MIC values	
